We go through two compounds from patent US20180009764A1, “METHOD FOR TREATING MACROPHAGE MIGRATION INHIBITORY FACTOR (MIF)-IMPLICATED DISEASES AND CONDITIONS WITH IODO PYRIMIDINE DERIVATIVES” (UNIVERSITY OF LOUISVILLE RESEARCH FOUNDATION, INC., priority 2009, published 2018).

pIC50: −log10 of the molar value.

Data set [1] deals with T1, MIF (Mus musculus, UniProt P34884).
T1 construct: from tissue; host or cells: mouse liver (A7); liver, lung and brain of C57BL6 mice (A20)
As to the kind of experiment: MIF liver lysates enzymatic activity ex vivo (L-dopachrome tautomerase). As to conditions: mice; IP 1 mg in corn oil every day for 3 days; livers 6 hours after last injection; FIG. 1. As to the method:
This experiment, using an ex-vivo approach and the tautomeric reaction of L-dopachrom, was designed to ascertain the level of inhibition of MIF following administration of the compounds of this invention via oral, IV, IP or any other route of administration. Mice were used in the example illustrated below, but other animals could be used as well. Groups of 3 mice were administered IP 1 mg of 4-IPP and ACT-002 resuspended in 100 μl of corn oil every day for 3 days. Mice were sacrificed 6 hours after the last injection and livers were harvested. ˜1 gram pieces of liver were lysed in PBS containing 1 mM NaVO4, 2 mM NaF and a protease inhibitor cocktail (Roche Biochemical, Indianapolis, Ind.) using dounce-homogenization on ice. 500 μg of liver lysates were added to a final volume of 700 μl PBS in plastic cuvettes. 4 mM L-3, 4-dihydroxyphenylalanine methyl ester and 8 mM sodium periodate (Sigma-Aldrich) were combined in a 3:2 ratio to form L-dopachrome methyl ester. 300 μL of L-dopachrome methyl ester was then immediately added to the cuvettes; the OD475 nm was measured 2 min and 4 min after addition of the L-dopachrome.

The target in data set [2] is T2, MIF (Homo sapiens, UniProt P14174).
T2 construct: the enzymatic activity of MIF present in cell lysates; endogenous in cells
T2 sequence (P14174 2-115 limits assumed): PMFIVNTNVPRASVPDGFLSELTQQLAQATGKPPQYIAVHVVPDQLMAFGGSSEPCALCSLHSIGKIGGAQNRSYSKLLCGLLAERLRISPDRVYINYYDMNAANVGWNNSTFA
As to the kind of experiment: MIF cell lysate enzymatic inhibition. The format is biochemical. As to conditions: cell lysates. As to the method:
Normal or transformed cell lysates can be used to determine the concentration inhibiting the enzymatic activity of MIF present in cell lysates. Cells are cultured in the appropriate media to the required number of cells, collected, and lysed. Compounds to be characterized are solubilized in DMSO and serial dilutions are performed in order to obtain a range of concentrations including complete and no quantifiable inhibition.

For data set [3], the system named is primary human T lymphocytes. As to the kind of experiment: Anti-CD3 induced T lymphocyte activation/proliferation (flow cytometry). The data set is classed as cell-based. As to conditions: 25 μM. Here is the method: In order to assess the ability of MIF antagonists to disrupt autoimmune-associated T cell activation, primary human T lymphocytes were prepared using standard Ficoll-gradient preparations. 1×10^6 lymphocytes/ml were resuspended in RPMI/10% FCS and plated onto anti-CD3 antibodies previously immobilized onto tissue culture plates. Control, vehicle control (0.1% DMSO), 25 μM 4-IPP or 25 μM ACT-003 were added to cells and allowed to incubate for 48 hours. Cells were lifted, washed and stained with anti-CD4 or anti-CD8 antibodies and then analyzed by flow cytometry.
To validate the effects of MIF antagonists on T lymphocyte activation, experiments were set up exactly as described above and, 48 hours later, treated and untreated lymphocytes were stained with an anti-CD25 antibody. CD25 is also known as the high affinity IL-2 receptor—a very well characterized and frequently marker of T lymphocyte activation.
In order to investigate the relative kinetics of when 4-IPP and ACT-003 are acting in blocking T lymphocyte activation, we repeated the experiment described above but harvested lymphocytes only 16 hours after anti-CD3 plating. At this early time point during T lymphocyte activation, CD69 is found to be expressed and is usually considered to be an “early marker” of lymphocyte activation.
Finally, to confirm that proliferation of CD4+ and CD8+ T lymphocytes is blocked by 4-IPP-based MIF antagonists, we repeated the experiment as described above, added labeled-BrdU to cells, stained with either labeled anti-CD4 or anti-CD8 antibodies and then assessed relative CD4/CD8 and BrdU labeling in each treatment group.

Data set [4] can be described thus: Microsomal stability in human liver microsomes. The data set is classed as in vitro ADME. Particulars: 0 min; 37° C.; 1 mM NADPH. Here is the method:
Stability in human liver microsomes was tested over […] at 37° C. using pooled mixed gender human liver microsomes. Liver microsomes were prepared at 1.0 mg/ml of microsomal protein in a 100 mM potassium phosphate pH 7.4 buffer with 1 mM NADPH. The media was incubated at 37° C. with the compound in solution in DMSO. The concentration of the compound was followed by LC/MS-MS as a function of time. Samples were assayed at t=0, 30, 60 and 120 minutes. Testosterone was used as a positive control. The same experiment was performed with mouse liver microsomes instead of human liver microsomes.

A short description of data set [5]: Microsomal stability in human liver microsomes. The data set is classed as in vitro ADME. As to conditions: 15 min; 37° C.; 1 mM NADPH.

Take `Ic1cc(-c2ccccc2)ncn1` [4-IPP, 4-iodo-6-phenylpyrimidine, reference compound]: at MIF [1], the “MIF liver enzyme inhibition” value is recorded as “significant in vivo inhibition of MIF”. Moreover, the pIC50 against MIF [2] was under 5.70. Besides, the CD69 expression entry in data set [3] (16 hours, FIGS. 17 and 18) is recorded as “only a marginal effect on CD69 expression”. In addition, the “CD4 and CD8 T lymphocytes after anti-CD3 activation” value in data set [3] (48 hours, FIGS. 13 and 14) was “significantly fewer CD4 and CD8 T lymphocytes”. In data set [3] (48 hours, FIGS. 15 and 16), the “Anti-CD3-induced CD25 expression” value is “almost completely blocked the anti-CD3-induced CD25 expression”. For the same compound, the “BrdU labeling of CD8+ and CD4+ T lymphocytes (proliferation)” value in data set [3] (48 hours, FIGS. 19 and 20) is “almost completely blocked BrdU labeling in both CD8+ and CD4+ T lymphocytes”.
Regarding `C[C@]12CC[C@H]3[C@@H](CCC4=CC(=O)CC[C@@]43C)[C@@H]1CC[C@@H]2O` [Testosterone, reference compound], the “Metabolic Stability in Human Microsomes % Remaining” value in data set [4] is listed as 100%; in data set [5], 56%.

As a reminder, the pIC50 is −log10 of the IC50, conventionally taken in molar units. Read a high pIC50 as a small IC50.
